Experimental data published in US8597904B2, “Pharmaceutical compositions for the treatment of conditions responsive to proteasome inhibition” (priority 2007, dated 2013).

Key:
Format in all cases: cell-based, human
[1] = tested on: microtubule-associated protein 1 light chain 3 (LC3); assay: immunoblot of LC3 conversion (autophagy) in SK-N-SH cells
Protocol: To verify whether autophagy is induced in GlbA-treated cells, levels of microtubule-associated protein 1 light chain 3 (LC3), a reliable marker of autophagosomes, were measured. […] Therefore, this characteristic conversion of LC3 can be used to monitor autophagic activity. SK-N-SH cells were treated with GlbA in the presence or absence of 3-MA, and cell lysates were probed with LC3.

SK-N-SH cells [2] = assay: CellTiter 96 Aqueous One (MTS) cell proliferation assay
Protocol: (§1) The CellTiter 96 Aqueous One solution Cell Proliferation Assay (2-(4,5-dimethylthiazol-2-yl)-5-(3-carboxymethoxyphenyl)-2-(4-sulfophenyl)-2H-tetrazolium, inner salt; MTS) (Promega, San Luis Obispo, Calif.) was used to determine the viability of cells treated with GlbA and SylA. Briefly, SK-N-SH and SKOV3 cells were seeded in clear, 96 well plates, as described (Example 11), and cultured for 18-24 hours. Ten μl GlbA or SylA were added at different concentrations (0-100 μM) and incubated for 48 hours. After the experiment, 20 uL of tetrazolium CellTiter 96 Aqueous One Solution Reagent was added to wells, incubated for 75-150 min. at 37° C. The absorbance was measured at 490 nm using a Perkin Elmer HTS7000 Plus bioassay reader.

SKOV3 cells = assay: as above
Protocol: as §1

[3] = tested on: β-actin, procaspase-3 and protein kinase Akt/PKB; assay: Western blot of β-actin, procaspase-3 and Akt/PKB in syringolin A-treated cells; details: 20 μM, 48 hours
SK-N-SH cells [4] = assay: annexin V assay by flow cytometry; details: 25 μM, 48 hours
Protocol: SK-N-SH cells at a concentration of 1.0×10^5 cells per ml were seeded in 12-well plates containing 1 ml of culture medium per well. After 24 hours, 10 μl of syringolin A (25 μM final concentration) or an equal volume of sterile water (control) was added per well. Cells were incubated for 48 hours, trypsinized, washed twice in phosphate-buffered saline (PBS) and were counted; 1-2×10^5 cells suspended in 0.1 ml of 1× assay buffer per vial according to the manufacturer's instructions (BD Biosciences, Palo Alto, Calif.). Cells were stained with annexin V-FITC (5 μl) for 15 minutes in the dark, at room temperature. Assay buffer (0.4 ml) was added, and 5000 cells were analyzed using a FACScan flow cytometer (Becton Dickinson, San Jose, Calif.). The […] program was used for data analysis.

SK-N-SH cells [5] = assay: sulphorhodamine B (SRB) cell viability / proliferation assay; details: 48 hours
Description: (§2) The mammalian cell lines used to test the effects of syringolin A were human neuroblastoma (NB) cells with either wild type p53 (line SK-N-SH, provided by the American Type Culture Collection [ATCC], Manassas, Va.; Davidoff, et al. 1992. Oncogene 7:127-133; McKenzie, et al. 1999. Clin. Cancer Res. 5:4199-4207; Tweddle, et al. 2001. Am. J. Pathol. 158:2067-2077), mutant p53 (line LAN-1, cysteine to stop codon at residue 182, provided by Dr. Robert Seeger, University of California, Los Angeles, Calif.; Davidoff, et al. 1992. Oncogene 7:127-133; Tweddle, et al. 2001. Cancer Res. 61:8-13; Tweddle, et al. 2003. Cancer Lett. 197:93-98), or human ovarian cancer cells (line SKOV3, provided by Dr. Bonnie Warn-Cramer, Cancer Research Center of Hawaii). NB cells were maintained in RPMI 1640 (Biosource, Rockville, Md.) containing 10% (v/v) heat-inactivated fetal bovine serum (FBS) (Invitrogen, Carlsbad, Calif.), penicillin (100 IU/ml), and streptomycin (100 μg/ml) as previously described (Wallick, et al. 2005. Oncogene 24:5606-5618). SKOV3 cells were maintained in McCoy's 5A with L-glutamine (Mediatech Inc., Herndon, Va.) and containing 10% (v/v) heat-inactivated fetal bovine serum […] (Invitrogen, Carlsbad, Calif.) and gentamicin ([…]). Cells were seeded 18-24 hours before GlbA or SylA treatment and analyzed after 24 and/or 48 hours. Cell numbers were determined using a haemacytometer in the presence of trypan blue (Fisher Scientific, Pittsburgh, Pa.).
(§3) To then test the effects of syringolin A on proliferation, cells at 0.25-0.5×10^5 cells per ml were seeded in 96-well microtiter plates containing 100 μl of culture medium per well. After 24 hours, syringolin A was added to wells to a final concentration of 0.5 μm to 100 μm. Syringolin was not added to parallel samples of control cells. Cells were incubated for 48 hours, photographed, and the viability of cells (calculated as a percentage of control cell counts) was determined using the sulphorhodamine B (SRB) assay as previously reported (Skehan, et al. 1990. J. Natl. Cancer Inst. 82:1107-1112, which is incorporated herein by reference in its entirety). In brief, cell culture medium was removed from the microtiter plate and adherent cells were fixed with 10% (w/v) trichloracetic acid (TCA) for 30 minutes at room temperature. Following four washes with tap water, 100 μl of SRB (Sigma Chemical Co., St. Louis, Mo.) (0.4 g/100 ml 1% [v/v] glacial acetic acid in water) was added and the plate was then incubated for 30 minutes at room temperature, and rinsed four times with 3% (v/v) glacial acetic acid. After addition of 200 μl of 10 mM […] (not pH adjusted) to each well, the plate was incubated on an orbital shaker for 30 minutes until the SRB was uniformly dissolved. The absorption at a wavelength of 560 nm was read using an HTS 7000 Plus Bioassay Reader or a Victor 3, 1420 Multilabel Counter (PerkinElmer, Inc. Boston, Mass.). To record cell morphology with and without syringolin treatment, photomicrographs were taken of cells in 12-well plates or 96-well plates, in the presence or absence of 25 μM syringolin A, using a Nikon Diaphot inverted microscope (Nikon Corp., Tokyo, Japan) and a Carl Zeiss Axiovert 200M inverted microscope (Carl Zeiss, Goettingen, Germany), both equipped with a digital camera and computer software for image processing. Power of magnification for SK-N-SH, LAN-1, and SKOV3 cells was 20×, and for Rat-1 cells was 10×.

LAN-1 cells = assay: as above
Description: as §2, §3

Which results are given for CCCCCCC/C=C/C=C/C(=O)N[C@H](C(=O)N[C@H]1C[C@@H](O)CCNC(=O)/C=C/[C@H](C)NC1=O)[C@@H](C)O [glidobactin A]?
GlbA-induced autophagy after pre-treatment with 3-MA ([1]; GlbA with 3-MA pre-treatment): reverted GlbA-induced autophagy; LC3-II amount / conversion of LC3 ([1]; compared to untreated control cells): larger amounts of LC3-II; cell morphology (SK-N-SH cells [2]; 48 hours): severe morphological changes; EC50 (SK-N-SH cells [2]; Homo sapiens, 48 hours, MTS): ~0.14 µM; effectiveness of GlbA relative to SylA (SK-N-SH cells [2]; ratio of EC50): about 143 fold; EC50 (SKOV3 cells; Homo sapiens, SK-OV-3, 48 hours, MTS): ~0.8 µM; cell morphology (SKOV3 cells; SKOV3, 48 hours): severe morphological changes; effectiveness of GlbA relative to SylA (SKOV3 cells; SKOV3, ratio of EC50): ~25 fold

With CC(C)[C@H](NC(=O)N[C@H](C(=O)N[C@H]1/C=C/CCNC(=O)/C=C/[C@H](C(C)C)NC1=O)C(C)C)C(=O)O [syringolin A] as the molecule, how does the “levels of β-actin, procaspase-3 and protein kinase Akt/PKB” value [3] read?
Its value is “decreased”.

And the “annexin V binding” value (SK-N-SH cells [4])?
The value was “strongly bound annexin V”.

What about the cell morphology (SK-N-SH cells [5]; 25 μM) of the same molecule?
Its cell morphology is “induced significant morphological changes”.

What about the cell viability (SK-N-SH cells [5]; 0.5 to 100 μm, dose-dependent) of the same molecule?
Its cell viability is “reduced the cell viability”.

What about the IC50 (SK-N-SH cells [5]; Homo sapiens, SRB assay, read-out: IC50 (inhibitor concentration at which cell proliferation rate is reduced by 50% relative to control)) of the same molecule?
Its IC50 is 20 to 25 µM.

And the IC50 (LAN-1 cells; Homo sapiens, LAN1, LAN-1, 48 hours, SRB assay, read-out: IC50 (inhibitor concentration at which cell proliferation rate is reduced by 50% relative to control))?
The IC50 was 20 to 25 µM.

What about the cell morphology (LAN-1 cells; LAN-1, 25 μM, 48 hours) of the same molecule?
The cell morphology was “induced significant morphological changes”.

What about the cell viability (LAN-1 cells; LAN-1, 0.5 to 100 μm, 48 hours, dose-dependent) of the same molecule?
Its cell viability is “reduced the cell viability”.
